Where two headings read alike, the source gives them in different places.
Legend:
[1] = test system: sporadic PD patient fibroblasts; experiment: Mitochondrial membrane potential (MMP, TMRM) in sporadic PD patient fibroblasts; assay type: cell-based; details: Homo sapiens, Fibroblast, 24 h
Protocol: (§1) Fibroblasts were cultured in DMEM (Invitrogen) and routinely subcultured every 3-5 days using trypsin to dissociate them.
Fibroblasts were cultured and plated into a Griener black 384 pClear® plate at 10000 cells per well in 50 μl of media volume. The plates are left overnight in an incubator to allow the fibroblasts to adhere to the plate surface. The following morning the Glucose based medium is replaced with 25 μl of Galactose based media. The plates were then dosed with the compounds using an ECHO® 550 liquid handling system. The wells were dosed to provide an 8-point concentration range of 0.06 nM-300 nM of compound. After dosing the wells are topped up with a further 25 μl of Galactose based medium and then left in an incubator for 24 hours. After 24 hours, the medium is removed from the wells and replaced with 25 ul phenol free Minimal essential medium with 100 nM TMRM (Sigma) and 10 μM Hoechst Stain (Sigma). The plate is returned to the incubator for another hour after which the stain medium is removed and replaced with 25 ul Phenol free MEM. The plate is then imaged using an IN Cell high content microscope (GE Healthcare) with 10 fields of view per well in 2 channels, Cy3 excitation 542 nm, emission 604-64 nm; and the DAPI excitation 350 nm, emission 450-55 nm at 37° C. with CO2. After imaging the plate is disposed of and the images are Data mined using the INCell developer Toolkit (GE Healthcare).
After the assays had been repeated in triplicate per line and compound the data was then inputted into Graph pad Prism 7 software suite where a dose response curve is generated using the default “[Agonist] vs response (three parameters)” equation.
From this EC50 values, lowest response and maximal response were taken and used to calculate the Geometric mean between the 5 different lines assessed.
The mitochondrial membrane potential was measured in fibroblasts from 6 (Table 1) or 3 (Table 2) patients with sporadic Parkinson's disease when treated with Compounds of the invention or Comparator compounds. The results are shown in Tables 1 and 2, where “Bottom”=max response with lowest dose of compound (0.06 nM) and “top”=max response with highest dose of compound (300 nM).

[2] = test system: dopaminergic neurons derived from sPD patients (iNeurons); experiment: Mitochondrial function and neuronal morphology measurements in iNeurons from sPD patients; assay type: cell-based, human; details: for EC50: Homo sapiens, Neuron
Protocol: as §1
(§2) Briefly, iNPCs are plated in a 6-well plate and cultured for 2 days in DMEM/F-12 medium with Glutamax™ supplemented with 1% NEAA, 2% B27 (Gibco) and 2.5 μM of DAPT. On day 3, DAPT is removed and the medium is supplemented with 1 μM smoothened agonist (SAG) and FGF8 (75 ng/ml) for additional 10 days. Neurons are replated at this stage. Subsequently SAG and FGF8 are withdrawn and replaced with BDNF (30 ng/ml), GDNF (30 ng/ml), TGF-b3 […] and dcAMP (2 mM, Sigma) for 15 days.
Cells are plated in 96 well plates; for live imaging cells are incubated for one hour at 37 degree with 80 nM tetramethlyrhodamine (TMRM), 1 μM LysoTracker® Green (Invitrogen) and Hoechst Stain solution (Sigma) at 1 μM before imaging using Opera Phenix™. Cellular ATP measurements are undertaken using ATPlite kit (Perkin Elmer) as per manufacturer's instructions. Mitochondrial reactive oxygen species generation was assessed using mitochondrial NpFR2 (probe; a kind gift from Dr Liz New, University of Sydney, Australia) at 20 μM and Hoechst stain solution at 1 μM for 30 mins at 37° C., then the dyes are removed and cells images using Opera Phenix™. Images generated from the live imaging experiments were analysed using Harmony® (Perkin Elmer software). We developed protocols in order to segment nucleus, cell boundary and processes, mitochondria, lysosomes, autophagosomes. We only analysed the z projection images collected from the z stacks.

[3] = test system: dopaminergic neurons derived from sPD patients (iNeurons); experiment: Activated caspase 3 immunofluorescence staining in iNeurons; assay type: cell-based, human; details: untreated sPD 162
Protocol: as §2
Cells are plated into 96 well plates and fixed using 4% paraformaldehyde for 30 minutes. After PBS washes cells are permeabilised using 0.1% Triton™ X-100 for 10 minutes and blocked using 5% goat serum for 1 hour. Cells are incubated with primary antibodies tyrosine hydroxylase (St John's Laboratory); DAT (Abcam); Tuj (Millipore); Tom20 (BD Biosciences); activated caspase 3 (Cell Signaling); alpha synuclein (Cell Signaling); phosphorylated alpha synuclein (Millipore) at 4° C. for 16 hours. Cells are washed using PBS-Tween® and incubated with Alexa Fluor™-conjugated secondary antibodies 488 and 568 (Invitrogen) and Hoescht (Sigma) 1 μM prior to imaging. Imaging was performed using the Opera Phenix™ high content imaging system (Perkin Elmer).

[4] = test system: dopaminergic neurons derived from sPD patients (iNeurons); experiment: Dopamine ELISA in iNeurons; assay type: cell-based, human; details: untreated sPD 0
Protocol: as §2
Dopamine ELISA is performed using Dopamine research ELISA kit (Labor Diagnostika Nord GmbH&Co. KG) as per manufacturers instructions. Dopamine release is obtained incubating the cells at 37° C. using three different conditions at the same time per line. Medium is removed in all wells then the first well is incubated with HBSS with Ca^2+ and Mg^2+ (Gibco by Life Technologies) for 30 minutes, the second well is incubated in HBSS with Ca^2+ and Mg^2+ for 15 minutes and then 56 mM KCl (Fisher chemical) is added for another 15 minutes and the third well is incubated with HBSS without Ca^2+ and Mg^2+ (Gibco by Life Technologies) but with 2 mM EDTA for 15 min and then 56 mM KCl is added for another 15 minutes. Straight away media is collected in an eppendorf and cells are harvested using Accutase®, centrifuge at 400 g for 4 min and resuspended in 10 μl of PBS. […]

[5] = test system: mitochondrial respiratory chain complex I; experiment: Complex I assay, left striatum brain homogenate of mice dosed with or without MPTP; assay type: in vivo, mouse; details: for Complex I activity with concurrent MPTP treatment: left striatum
Protocol: Ex vivo mice brain was homogenated in a buffer of 250 mM sucrose, 20 mM HEPES, 3 mM EDTA, pH 7.5 at 4° C. Homogenisation was carried out using a Dounce homogenizer, for cortex samples, and by repetitive passage through a 0.5 mm syringe for isolated striatum. Samples were then incubated with 30 μl of detergent from the AbCam colorimetric Complex I assay kit on ice for 20 minutes. Samples are then centrifuged at 13,000 rpm for 30 mins. Triplicate samples per condition were blocked using the kit blocking buffer on the AbCam colorimetric Complex I assay kit plate for 3 hours. Samples are then washed using the kit wash buffer 3 times before the addition of the kit assay buffer containing NADH and colorimetric dye. The assay plate is read on a plate reader in a kinetic assay programme reading 450 nm in a 30 second interval for 50 minutes.

SMILES: C[C@H](CCC(=O)O)[C@H]1CC[C@H]2[C@@H]3[C@@H](O)C[C@@H]4C[C@@H](O)C(F)(F)C[C@]4(C)[C@H]3CC[C@]12C [Compound 7, 2,2-difluoro-3β,7β-dihydroxy-5β-cholanic acid]
- activity at 60 pM ([1]; read-out: MMP Bottom (% of vehicle treated)): 100%
- EC50 ([1]; read-out: MMP EC50 (nM)): 4.07 nM
- activity at 0.3 µM ([1]; read-out: MMP Top (% of vehicle treated)): 114%
- EC50 ([2]; read-out: ATP EC50 (nM)): 0.8 nM
- EC50 ([2]; read-out: MMP EC50 (nM)): 0.52 nM
- Neuronal morphology (elongation; % controls) ([2]; iNeurons from sPD patients, untreated sPD 48): 78 % controls
- ATP normalisation (% of controls) ([2]; iNeurons from sPD patients, untreated sPD 50): 101 % of controls
- MMP normalisation (% of controls) ([2]; iNeurons from sPD patients, untreated sPD 52): 100 % of controls
- ROS (Normalisation) (% controls) ([2]; iNeurons from sPD patients, untreated sPD 115): 103 % controls
- Activated caspase 3 levels [3]: 100 % of level in iNeurons from Controls
- Dopamine level (increase in dopamine release) [4]: ~5% increase in
- Increase in complex I activity over untreated controls ([5]; left striatum mouse brain homogenate, Vehicle+12 mg Compound 7 alone, FIG. 4): approximately 30%
- Complex I activity with concurrent MPTP treatment ([5]; MPTP + 1 mg Compound 7, p<0.01 vs MPTP alone): retains complex I at normal levels
- Complex I activity with concurrent MPTP treatment ([5]; MPTP + increased doses (4 mg, 12 mg) of Compound 7): appears to prevent any loss of complex I activity by MPTP
